From patent US8114875B2, “Substituted N-heterocyclic compounds and their use as dopamine D3 receptor ligands” (Abbott GmbH & Co. KG, priority 2004, dated 2012)
pKi: −log10 of the molar value.

Tests used:
[1] = molecular target: T1, human dopamine D3 receptors (Homo sapiens, UniProt P35462); assay: Dopamine D3 receptor binding, displacement of [125I]-iodosulpride; settings: membranes from HEK-293 cells with stably expressed human D3 receptors; 0.1 nM [125I]-iodosulpride; 25° C., 60 minutes
T1 construct: expressed in transfected cells; host or cells: HEK-293
Procedure: (§1) The substance to be tested was dissolved either in methanol/Chremophor® (BASFAG) or in dimethyl sulfoxide and then diluted with water to the desired concentration.
The mixture (0.250 ml) was composed of membranes from ˜106 HEK-293 cells with stably expressed human dopamine D3 receptors, 0.1 nM [^125I]-iodosulpride and incubation buffer (total binding) or with additional test substance (inhibition plot) or 1 μM spiperone (nonspecific binding). Triplicate mixtures were carried out.
The incubation buffer contained 50 mM Tris, 120 mM NaCl, 5 mM KCl, 2 mM CaCl2, 2 mM MgCl2 and 0.1% bovine serum albumin, 10 μM quinolone, 0.1% ascorbic acid (prepared fresh each day). The buffer was adjusted to pH 7.4 with HCl.
(§2) Measurement and Evaluation:
(§3) After incubation at 25° C. for 60 minutes, the mixtures were filtered under vacuum through Whatman GF/B glass fiber filters using a cell harvester. The filters were transferred by a filter transfer system into scintillation vials. After addition of 4 ml of Ultima Gold® (Packard), the samples were shaken for one hour and then the radioactivity was counted in a beta counter (Packard, Tricarb 2000 or 2200CA). The cp values were converted into dpm by means of a standard quench series with the aid of the instrument's own program.
(§4) Evaluation of the inhibition plots took place by iterative nonlinear regression analysis using the Statistical Analysis System (SAS) similar to the “LIGAND” program described by Munson and Rodbard.

[2] = molecular target: T2, human dopamine D2L receptors (long isoform) (Homo sapiens, UniProt P14416); assay: Dopamine D2L receptor binding, displacement of [125I]-iodospiperone; settings: ratio of Ki values from D3 and D2L binding assays, HEK-293 membranes
T2 construct: expressed in transfected cells; host or cells: HEK-293
Procedure: as §1
The mixture (1 ml) was composed of membranes from ˜10^6 HEK-293 cells with stably expressed human dopamine D2L receptors (long isoform) and 0.01 nM [^1251]-iodospiperone and incubation buffer (total binding) or with additional test substance (inhibition plot) or 1 μM haloperidol (nonspecific binding). Triplicate mixtures were carried out.
The incubation buffer contained 50 mM Tris, 120 mM NaCl, 5 mM KCl, 2 mM CaCl2, 2 mM MgCl2 and 0.1% bovine serum albumin. The buffer was adjusted to pH 7.4 with HCl.
as §2, §3, §4

T1 sequence (P35462 whole entry): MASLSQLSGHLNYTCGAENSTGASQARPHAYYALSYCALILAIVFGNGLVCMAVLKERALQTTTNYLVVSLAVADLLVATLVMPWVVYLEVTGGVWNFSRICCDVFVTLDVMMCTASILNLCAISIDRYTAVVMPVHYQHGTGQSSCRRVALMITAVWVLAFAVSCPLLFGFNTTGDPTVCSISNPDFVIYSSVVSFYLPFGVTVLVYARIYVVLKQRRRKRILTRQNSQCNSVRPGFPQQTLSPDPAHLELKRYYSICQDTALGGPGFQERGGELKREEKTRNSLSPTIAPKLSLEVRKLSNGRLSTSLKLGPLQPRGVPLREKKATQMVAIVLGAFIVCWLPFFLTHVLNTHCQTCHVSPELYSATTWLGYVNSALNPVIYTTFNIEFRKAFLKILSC
T2 sequence (P14416 whole entry, canonical isoform): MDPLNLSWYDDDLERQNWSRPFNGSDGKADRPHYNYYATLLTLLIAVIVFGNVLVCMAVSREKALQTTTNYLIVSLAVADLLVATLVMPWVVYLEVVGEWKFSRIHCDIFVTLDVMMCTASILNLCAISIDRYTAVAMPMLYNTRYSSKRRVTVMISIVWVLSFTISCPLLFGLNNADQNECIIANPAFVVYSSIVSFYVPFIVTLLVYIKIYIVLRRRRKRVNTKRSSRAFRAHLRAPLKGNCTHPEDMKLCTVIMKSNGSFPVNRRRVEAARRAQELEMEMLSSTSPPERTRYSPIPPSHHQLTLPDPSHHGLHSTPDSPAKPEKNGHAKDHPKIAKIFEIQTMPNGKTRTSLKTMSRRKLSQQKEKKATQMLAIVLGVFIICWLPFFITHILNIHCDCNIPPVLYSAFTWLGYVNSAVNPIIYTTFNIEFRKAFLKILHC

## Cc1cn(CCCCN2CCN(Cc3ccc(Cl)cc3Cl)CC2)c(=O)[nH]c1=O [Example 1, 1-{4-[4-(2,4-Dichlorobenzyl)piperazin-1-yl]butyl}-5-methyl-1H-pyrimidine-2,4-dione]
[1]
  pKi: 8.05
[2]
  Selectivity D3 vs. D2L (footnote: Ki(D2L)/Ki(D3)): 98

## O=c1ccn(CCCCN2CCN(Cc3ccc(Cl)cc3Cl)CC2)c(=O)[nH]1 [Example 2, 1-{4-[4-(2,4-Dichlorobenzyl)piperazin-1-yl]butyl}-1H-pyrimidine-2,4-dione]
[1]
  pKi: 8.34
[2]
  Selectivity D3 vs. D2L (footnote: Ki(D2L)/Ki(D3)): 94

## O=c1nc(-c2ccccc2)ccn1CCCCN1CCN(Cc2ccc(Cl)cc2Cl)CC1 [Example 3, 1-{4-[4-(2,4-Dichlorobenzyl)piperazin-1-yl]butyl}-4-phenyl-1H-pyrimidin-2-one]
[1]
  pKi: 8.50
[2]
  Selectivity D3 vs. D2L (footnote: Ki(D2L)/Ki(D3)): 204

## Cc1ccn(CCCCN2CCN(Cc3ccc(Cl)cc3Cl)CC2)c(=O)n1 [Example 4, 1-{4-[4-(2,4-Dichlorobenzyl)piperazin-1-yl]butyl}-4-methyl-1H-pyrimidin-2-one]
[1]
  pKi: 7.77
[2]
  Selectivity D3 vs. D2L (footnote: Ki(D2L)/Ki(D3)): 31

## O=c1[nH]c(=O)n(CCCCN2CCN(Cc3ccc(Cl)cc3Cl)CC2)cc1F [Example 5, 1-{4-[4-(2,4-Dichlorobenzyl)piperazin-1-yl]butyl}-5-fluoro-1H-pyrimidine-2,4-dione]
[1]
  pKi: 7.97
[2]
  Selectivity D3 vs. D2L (footnote: Ki(D2L)/Ki(D3)): 99

## Cc1cn(CCCCN2CCN(Cc3ccc(Cl)c(Cl)c3)CC2)c(=O)[nH]c1=O [Example 10, 1-{4-[4-(3,4-Dichlorobenzyl)piperazin-1-yl]butyl}-5-methyl-1H-pyrimidine-2,4-dione]
[1]
  pKi: 7.74
[2]
  Selectivity D3 vs. D2L (footnote: Ki(D2L)/Ki(D3)): 51

## Cc1cn(CCCCN2CCN(Cc3ccc(F)cc3Cl)CC2)c(=O)[nH]c1=O [Example 11, 1-{4-[4-(2-Chloro-4-fluorobenzyl)piperazin-1-yl]butyl}-5-methyl-1H-pyrimidine-2,4-dione]
[1]
  pKi: 7.65
[2]
  Selectivity D3 vs. D2L (footnote: Ki(D2L)/Ki(D3)): 48
